Measured values published in the supplement of paper PMC3974653.
Counter-ions that a name gives are not always drawn.

Tested on: MTT (mouse pheochromocytoma)
Assay: IC50 of cell viability (ATP content)
Details: (24 or 48 h)
Method in brief: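 MTT mouse pheochromocytoma cells were seeded into white 1536-well plates at 5 µl per well from a 200,000 cells/ml suspension in DMEM with 5% FBS and 1% horse serum, then cultured overnight at 37°C, 5% CO2. A pintool added 23 nl of library compound in DMSO at 8 concentrations (final 0.5 nM to 46 µM) for 24 or 48 hrs, and CellTiter-Glo ATP luminescence was read after 15 minutes. Signals were scaled so that positive-control wells equalled 100% and DMSO wells 0%. IC50 values were derived by fitting a four-parameter logistic curve.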

| IC50 of cell viability [µM] | Compound |
| --- | --- |
| > 46 | CCCCOc1ccc(OCCCN2CCOCC2)cc1 [Pramoxine hydrochloride] |
| > 46 | CCOC(=O)C(CCc1ccccc1)NC(C)C(=O)N1C(C(=O)O)CC2CCCCC21 (stereo unspecified) [TRANDOLAPRIL] |
| > 46 | [2H]c1c([2H])c([2H])c2c([nH]c(=S)n2C2CCN(CCCC(=O)c3ccc(F)cc3)CC2)c1[2H] [Timiperone] |
| > 46 | C[C@]\12CCC(=O)\C=C1CCC3C4CC[C@](O)(C(=O)CO)[C@]4(C)CC(=O)C23 (stereo partly specified) [CORTISONE] |
| > 46 | O=C(NOCC(O)CO)c1ccc(F)c(F)c1Nc1ccc(I)cc1F (stereo unspecified) |
| > 46 | CCCCCC(N)=O [Hexanamide] |
| > 46 | OCCCc1ccccc1 [3-Phenyl-1-propanol] |
| > 46 | NC/1=N/C(=O)N(C[C@@H](CO)OC[P](O)(O)=O)/C=C1 [CIDOFOVIR] |
| > 46 | CSCCC(N)C(=O)O (stereo unspecified) [METHIONINE] |
| > 46 | NC[C@@H]1O[C@@H](O[C@H]2[C@@H](O)[C@H](O[C@@H]3[C@@H](O)[C@H](N)C[C@H](N)[C@H]3O[C@H]3O[C@H](CN)[C@@H](O)[C@H](O)[C@H]3N)O[C@@H]2CO)[C@H](N)[C@@H](O)[C@@H]1O [Neomycin Trisulfate Hydrate] |
| > 46 | CC(=O)OCC(=O)[C@@]1(O)CCC2C3CCC4=CC(=O)CC[C@]4(C)C3=CC[C@@]21C (stereo partly specified) [ANECORTAVE ACETATE] |
| > 46 | CC(C)(C)c1ccc(C(O)CCCN2CCC(C(O)(c3ccccc3)c3ccccc3)CC2)cc1 (stereo unspecified) [Terfenadine] |
| > 46 | COC1CC(O[C@H]2/C(C)=C/CC3CC(C[C@]4(CCC(C)C(C5CCCCC5)O4)O3)OC(=O)[C@H]3C=C(C)/C(=N/O)C4OC/C(=C\C=C\[C@@H]2C)[C@@]43O)OC(C)C1O (stereo partly specified) [SELAMECTIN] |
| > 46 | CCOC(=O)Nc1ccc2c(c1)N(C(=O)CCN1CCOCC1)c1ccccc1S2 [Moricizine hydrochloride] |
| > 46 | CC#CC[C@@H](C)[C@@H](O)/C=C/[C@H]1[C@H]2c3cccc(CCCC(=O)[O-])c3O[C@H]2C[C@@H]1O [BERAPROST SODIUM] |
| > 46 | NC12CC3CC(CC(C3)C1)C2 [AMANTIDINE] |

| IC50 of cell viability [µM] | Compound |
| --- | --- |
| > 46 | CC(C)CN(C[C@@H](O)[C@H](Cc1ccccc1)NC(=O)O[C@H]1CCOC1)[S+](=O)([O-])c1ccc(N)cc1 [Amprenavir] |
| > 46 | COc1cc(C)c(/C=C/C(C)=C/C=C/C(C)=C/C(=O)O)c(C)c1C [ACITRETIN] |
| > 46 | CN1CCN(c2cc3c(cc2F)c(=O)c(C(=O)O)cn3-c2ccc(F)cc2)CC1 [DIFLOXACIN HYDROCHLORIDE] |
| > 46 | O=C(O)CCCC/C=C(\c1ccccc1)c1cccnc1 [Isbogrel] |
| > 46 | CC1CCN(CCCC(=O)c2ccc(F)cc2)CC1 [MELPERONUM] |
| > 46 | COC(=O)\C1=C(/C)N\C(=C(/C1C2=CC=CC(=C2)[N+]([O-])=O)C(=O)OCCN(C)CC3=CC=CC=C3)C (stereo unspecified) [NICARDIPINE] |
| > 46 | CCCCO [n-Butyl alcohol] |
| > 46 | N[C@@H](C(=O)N[C@H]1[C@H]2SC\C(=C(/N2C1=O)C(O)=O)Cl)C3=CC=CC=C3 [Cefaclorum] |
| > 46 | CCCCN1CCCC1C(=O)Nc1c(C)cc(C)cc1C (stereo unspecified) [BUMECAINUM] |
| > 46 | Oc1ccc(C2CNCCc3c2cc(O)c(O)c3Cl)cc1 (stereo unspecified) [FENOLDOPAM] |
| > 46 | CCc1c(C)[nH]c2c1C(=O)[C@H](CN1CCOCC1)CC2 [Molindone hydrochloride] |
| > 46 | OC[C@@H]1O[C@H](C[C@@H]1O)N2\C=C(\I)C(=O)NC2=O [Idoxuridine] |
| > 46 | C[C@H](/C=C/[C@H](C)C(C)(C)O)[C@H]1CC[C@H]2/C(=C/C=C3C[C@@H](O)C[C@H](O)C3)CCC[C@]12C [Paricalcitol] |
| > 46 | Nc1nc(N)c2nc(CNc3ccc(C(=O)NC(CCC(=O)O)C(=O)O)cc3)cnc2n1 (stereo unspecified) [AMINOPTERIN] |
| > 46 | O=C1c2cccc3c2[C@@H](CCC3)CN1[C@@H]1CN2CCC1CC2 [PALONOSETRON HYDROCHLORIDE] |

Continued, molecule first:

| Compound | IC50 of cell viability [µM] |
| --- | --- |
| O=C1NCN(c2ccccc2)C12CCN(CC1COc3ccccc3O1)CC2 (stereo unspecified) [SPIROXATRINE] | > 46 |
| C[N@+]1([O-])[C@@H]2C[C@H](OC(=O)[C@@H](CO)c3ccccc3)C[C@@H]1[C@H]1O[C@H]12 [AMINOXYSCOPOLAMINE HYDROBROMIDE] | > 46 |
| CC(=O)/N=c1/sc([S+](N)(=O)[O-])nn1C [Methazolamide] | > 46 |
| CCOC(=O)NC(C)(C)Cc1ccc(Cl)cc1 [Cloforex] | > 46 |
| CN(C(=O)C(Cl)Cl)c1ccc(OC(=O)c2ccco2)cc1 [Diloxanide furoate] | > 46 |
| CCCOC1=C(C=CC=C1)\C2=N\C(=O)C3=C([NH]N=N3)N2 [Zaprinast] | > 46 |
| CCN1\C=C(\C(O)=O)C(=O)C2=CC=C(C)N=C12 [Nalidixic acid] | > 46 |
| COC1=CC(=C2C(=O)[C@]\3(OC2=C1Cl)[C@H](C)CC(=O)\C=C3OC)OC [Griseofulvin] | > 46 |
| CC(C)NC[C@@H](O)COc1cccc2ccccc12 [R-(+)-PROPRANOLOL] | > 46 |
| O=C(/C=C/c1ccccc1)OCc1ccccc1 [BENZYL CINNAMATE] | > 46 |
| O=C(O)/C=C\C(=O)O.O=C(O)/C=C\C(=O)O.c1cc(CN2CCCCC2)cc(OCCCNc2nc3ccccc3s2)c1 | > 46 |
| CN(C(=O)CN(CCO)CC(=O)N(C)C(C)(C)Cc1ccccc1)C(C)(C)Cc1ccccc1 [Oxethazaine] | > 46 |
| Nc1ccc([S+](N)(=O)[O-])cc1 [Sulfanilamide] | > 46 |
| C=CCN.Cl.ClC[C@H]1CO1 [Sevelamer hydrochloride] | > 46 |
| O=C1NC(=O)[C@@]2(CCOc3ccc(F)cc32)N1 [Sorbinil] | > 46 |
| Cc1cc(C)cc(C(=O)OC2CC3CCC(C2)N3C)c1 (stereo unspecified) [TROPANYL 3,5-DIMETHYLBENZOATE] | > 46 |
| O=C(O)c1ccccc1-c1c2ccc(=O)cc-2oc2cc(O)ccc12 [Fluorescein sodium] | > 46 |
| CCC1(c2ccccc2)CCC(=O)NC1=O (stereo unspecified) [Glutethimide] | > 46 |
| Nc1cccc2c1CN(C1CCC(=O)NC1=O)C2=O (stereo unspecified) [LENALIDOMIDE] | > 46 |
| O=C(O)c1ccccc1-c1ccc(C(F)(F)F)cc1 [Xenalipin] | > 46 |
| COC(=O)[C@@H](N)CS [Mecisteina] | > 46 |
| Cc1cccc(Nc2cc(Cl)nc(SCC(=O)O)n2)c1C | > 46 |
| CCC1(C)CC(=O)NC(=O)C1 [Bemegride] | > 46 |

| Compound | IC50 of cell viability [µM] |
| --- | --- |
| OC(O)C(Cl)(Cl)Cl [CHLORAL HYDRATE] | > 46 |
| CC(C)CC(N(C)C)C1(c2ccc(Cl)cc2)CCC1.Cl (stereo unspecified) [SIBUTRAMINE HYDROCHLORIDE] | > 46 |
| CCN(CC)C(=O)N[C@@H]1C=C2c3cccc4[nH]cc(c34)C[C@H]2N(C)C1 [S(-)-LISURIDE] | > 46 |
| Cn1c(=O)c2c(ncn2C[C@@H](O)CO)n(C)c1=O [Diprophylline] | > 46 |
| COc1ccc2cc(CCC(C)=O)ccc2c1 [Nabumetone] | > 46 |
| CN(C)CCN(Cc1cccs1)c1ccccn1.Cl [METHAPYRILENE HYDROCHLORIDE] | > 46 |
| CNC(C)C(O)c1ccc(O)cc1 (stereo unspecified) [P-HYDROXYEPHEDRINE HYDROCHLORIDE] | > 46 |
| N[S+](=O)([O-])c1cc2c(cc1Cl)N[C@@H](C(Cl)Cl)N[S+]2(=O)[O-] [Trichlormethiazide] | > 46 |
| CN1C2CCC1C(C(=O)O)C(OC(=O)c1ccccc1)C2 (single isomer, unassigned; (-)) [(-)-Benzoylecgonine] | > 46 |
| CC(C)(C)NCC(O)c1ccc(O)c(CO)c1 (stereo unspecified) [SALBUTAMOL] | > 46 |
| O=C([O-])C1=NN(c2ccc(S(=O)(=O)[O-])cc2)C(=O)/C1=N\Nc1ccc(S(=O)(=O)[O-])cc1 [Tartrazine] | > 46 |
| O=C1/C(=C\c2cccs2)CCC/C1=C/c1cccs1 [Tenilidona] | > 46 |
| Nc1nc(O)c(-c2ccccc2)o1 [PEMOLINE] | > 46 |
| O=Cc1ccco1 [Furfural] | > 46 |
| O=C(O)c1ccc(OCCn2ccnc2)cc1 [DAZOXIBENUM] | > 46 |
| CCCC(=O)OC(C(Cl)(Cl)Cl)P(=O)(OC)OC (stereo unspecified) [Butonate] | > 46 |
| CN1CCN(C2Cc3ccccc3Sc3ccc(Cl)cc32)CC1.O=C(O)/C=C\C(=O)O (stereo unspecified) [(?)-Octoclothepin maleate] | > 46 |
| CN1\C(=C(\O)C2=C(C=CS2)[S+]1([O-])=O)C(=O)NC3=CC=CC=N3 [Tenoxicam] | > 46 |
| O=S(=O)([O-])c1ccc(O)cc1 [PHENOLSULFONIC ACID] | > 46 |
| Cc1nc(N[S+](=O)([O-])c2ccc(N)cc2)nc(C)c1Br [SULFABROMOMETHAZINE SODIUM] | > 46 |
| Cl.NCCc1cc(O)c(O)cc1O [OXIDOPAMINE HYDROCHLORIDE] | > 46 |
| Cc1c(Cl)cccc1Nc1ncccc1C(=O)O [CLONIXINUM] | > 46 |
